Results reported in patent publication US7414071B2, “Methods of treatment with selective EP4 receptor agonists” (Pfizer Inc., priority 2002, dated 2008).

Test system: New Zealand White male rabbits
Assay: In vivo anesthetized rabbit model (hypotensive effect: mean arterial pressure and heart rate)
Experimental: Methods: New Zealand White male rabbits (3-4 kg) are anesthetized with sodium pentobarbital (30 mg/kg, i.v.) and a surgical plane of anesthesia is maintained by a continuous infusion of sodium pentobarbital (16 mg/kg/hr) via an ear vein catheter. A tracheotomy is performed through a ventral midline cervical incision and the rabbits are ventilated with 100% oxygen using a positive pressure ventilator. Body temperature is maintained at 38.5° C. using a heating pad connected to a YSI temperature controller model 72 (Yellow Springs Instruments, Yellow Springs, […].). Fluid-filled catheters are placed in the right jugular vein (for intravenous drug administration) and in the right carotid artery for arterial pressure monitoring and for blood gas analysis using a model 248 blood gas analyzer (Bayer Diagnostics, Norwood, Mass.). The ventilator is adjusted as needed to maintain blood pH and pCO2 within normal physiological ranges for rabbits. […] Blood is sampled after dosing or during the infusion of the test compound to determine plasma concentrations of the test compounds.
Thus, dosing volumes were 0.2 ml/kg (Group A) subcutaneously or 5 ml/h (Groups B, C, and D) as an intravenous (IV) infusion. The term “mgA” means the number of milligrams adjusted for active compound (e.g. corrected for salt etc.).
Dosing: Four groups (Groups A, B, C, and D) of two rabbits each were dosed as follows.

[1] = Group B, 167 μg/kg/h IV infusion
[2] = Group C, 16.7 μg/kg/h IV infusion

## O=C([O-])c1ccc(CCCN2C(=O)CC[C@@H]2CC[C@@H](O)Cc2cccc(C(F)(F)F)c2)s1.[Na+] [Compound 3M sodium salt]
Group A, 1 mgA/kg SC
  duration of hemodynamic effect: sustained over the entire 4 hour post-dose interval
  effect on heart rate: increase in heart rate
  effect on mean arterial pressure: decrease in mean arterial pressure
  onset of hemodynamic effect: < 2 min
Group A, 1 mgA/kg SC bolus, 5 min post-dose, mean of 2, baseline 92
  mean arterial pressure (MAP): 69 mm Hg
Group A, 1 mgA/kg SC bolus, 5 min post-dose, mean of 2, baseline 243
  heart rate (HR): 268 beats/minute
Group A, 1 mgA/kg SC bolus, 10 min post-dose, mean of 2, baseline 92
  mean arterial pressure (MAP): 59 mm Hg
Group A, 1 mgA/kg SC bolus, 10 min post-dose, mean of 2, baseline 243
  heart rate (HR): 283 beats/minute
Group A, 1 mgA/kg SC bolus, 15 min post-dose, mean of 2, baseline 92
  mean arterial pressure (MAP): 60 mm Hg
Group A, 1 mgA/kg SC bolus, 15 min post-dose, mean of 2, baseline 243
  heart rate (HR): 285 beats/minute
Group A, 1 mgA/kg SC bolus, 30 min post-dose, mean of 2, baseline 92
  mean arterial pressure (MAP): 59 mm Hg
Group A, 1 mgA/kg SC bolus, 30 min post-dose, mean of 2, baseline 243
  heart rate (HR): 284 beats/minute
Group A, 1 mgA/kg SC bolus, 60 min post-dose, mean of 2, baseline 92
  mean arterial pressure (MAP): 59 mm Hg
Group A, 1 mgA/kg SC bolus, 60 min post-dose, mean of 2, baseline 243
  heart rate (HR): 288 beats/minute
Group A, 1 mgA/kg SC bolus, 90 min post-dose, mean of 2, baseline 92
  mean arterial pressure (MAP): 59 mm Hg
Group A, 1 mgA/kg SC bolus, 90 min post-dose, mean of 2, baseline 243
  heart rate (HR): 284 beats/minute
Group A, 1 mgA/kg SC bolus, 120 min post-dose, mean of 2, baseline 92
  mean arterial pressure (MAP): 58 mm Hg
Group A, 1 mgA/kg SC bolus, 120 min post-dose, mean of 2, baseline 243
  heart rate (HR): 278 beats/minute
Group A, 1 mgA/kg SC bolus, 150 min post-dose, mean of 2, baseline 92
  mean arterial pressure (MAP): 57 mm Hg
Group A, 1 mgA/kg SC bolus, 150 min post-dose, mean of 2, baseline 243
  heart rate (HR): 275 beats/minute
Group A, 1 mgA/kg SC bolus, 180 min post-dose, mean of 2, baseline 92
  mean arterial pressure (MAP): 60 mm Hg
Group A, 1 mgA/kg SC bolus, 180 min post-dose, mean of 2, baseline 243
  heart rate (HR): 273 beats/minute
Group A, 1 mgA/kg SC bolus, 210 min post-dose, mean of 2, baseline 92
  mean arterial pressure (MAP): 61 mm Hg
Group A, 1 mgA/kg SC bolus, 210 min post-dose, mean of 2, baseline 243
  heart rate (HR): 273 beats/minute
Group A, 1 mgA/kg SC bolus, 240 min post-dose, mean of 2, baseline 92
  mean arterial pressure (MAP): 65 mm Hg
Group A, 1 mgA/kg SC bolus, 240 min post-dose, mean of 2, baseline 243
  heart rate (HR): 273 beats/minute
[1]
  duration of hemodynamic effect: sustained over the entire 4 hour post-dose interval
  effect on heart rate: increase in heart rate
  effect on mean arterial pressure: decrease in mean arterial pressure
  onset of hemodynamic effect: < 2 min
Group B, 167 μg/kg/hr IV infusion for 4 hours, 5 min, mean of 2, baseline 87
  mean arterial pressure (MAP): 67 mm Hg
Group B, 167 μg/kg/hr IV infusion for 4 hours, 5 min, mean of 2, baseline 260
  heart rate (HR): 296 beats/minute
Group B, 167 μg/kg/hr IV infusion for 4 hours, 10 min, mean of 2, baseline 87
  mean arterial pressure (MAP): 67 mm Hg
Group B, 167 μg/kg/hr IV infusion for 4 hours, 10 min, mean of 2, baseline 260
  heart rate (HR): 296 beats/minute
Group B, 167 μg/kg/hr IV infusion for 4 hours, 15 min, mean of 2, baseline 87
  mean arterial pressure (MAP): 69 mm Hg
Group B, 167 μg/kg/hr IV infusion for 4 hours, 15 min, mean of 2, baseline 260
  heart rate (HR): 296 beats/minute
Group B, 167 μg/kg/hr IV infusion for 4 hours, 30 min, mean of 2, baseline 87
  mean arterial pressure (MAP): 68 mm Hg
Group B, 167 μg/kg/hr IV infusion for 4 hours, 30 min, mean of 2, baseline 260
  heart rate (HR): 291 beats/minute
Group B, 167 μg/kg/hr IV infusion for 4 hours, 60 min, mean of 2, baseline 87
  mean arterial pressure (MAP): 67 mm Hg
Group B, 167 μg/kg/hr IV infusion for 4 hours, 60 min, mean of 2, baseline 260
  heart rate (HR): 293 beats/minute
Group B, 167 μg/kg/hr IV infusion for 4 hours, 90 min, mean of 2, baseline 87
  mean arterial pressure (MAP): 57 mm Hg
Group B, 167 μg/kg/hr IV infusion for 4 hours, 90 min, mean of 2, baseline 260
  heart rate (HR): 282 beats/minute
Group B, 167 μg/kg/hr IV infusion for 4 hours, 120 min, mean of 2, baseline 87
  mean arterial pressure (MAP): 55 mm Hg
Group B, 167 μg/kg/hr IV infusion for 4 hours, 120 min, mean of 2, baseline 260
  heart rate (HR): 282 beats/minute
Group B, 167 μg/kg/hr IV infusion for 4 hours, 150 min, mean of 2, baseline 87
  mean arterial pressure (MAP): 52 mm Hg
Group B, 167 μg/kg/hr IV infusion for 4 hours, 150 min, mean of 2, baseline 260
  heart rate (HR): 279 beats/minute
Group B, 167 μg/kg/hr IV infusion for 4 hours, 180 min, mean of 2, baseline 87
  mean arterial pressure (MAP): 53 mm Hg
Group B, 167 μg/kg/hr IV infusion for 4 hours, 180 min, mean of 2, baseline 260
  heart rate (HR): 285 beats/minute
Group B, 167 μg/kg/hr IV infusion for 4 hours, 210 min, mean of 2, baseline 87
  mean arterial pressure (MAP): 56 mm Hg
Group B, 167 μg/kg/hr IV infusion for 4 hours, 210 min, mean of 2, baseline 260
  heart rate (HR): 284 beats/minute
Group B, 167 μg/kg/hr IV infusion for 4 hours, 240 min, mean of 2, baseline 87
  mean arterial pressure (MAP): 55 mm Hg
Group B, 167 μg/kg/hr IV infusion for 4 hours, 240 min, mean of 2, baseline 260
  heart rate (HR): 297 beats/minute
[2]
  effect on heart rate: slight increase in the heart rate
  effect on mean arterial pressure: slight decrease in mean arterial pressure
Group C, 16.7 μg/kg/hr IV infusion for 4 hours, 5 min, mean of 2, baseline 95
  mean arterial pressure (MAP): 91 mm Hg
Group C, 16.7 μg/kg/hr IV infusion for 4 hours, 5 min, mean of 2, baseline 291
  heart rate (HR): 289 beats/minute
Group C, 16.7 μg/kg/hr IV infusion for 4 hours, 10 min, mean of 2, baseline 95
  mean arterial pressure (MAP): 86 mm Hg
Group C, 16.7 μg/kg/hr IV infusion for 4 hours, 10 min, mean of 2, baseline 291
  heart rate (HR): 299 beats/minute
Group C, 16.7 μg/kg/hr IV infusion for 4 hours, 15 min, mean of 2, baseline 95
  mean arterial pressure (MAP): 84 mm Hg
Group C, 16.7 μg/kg/hr IV infusion for 4 hours, 15 min, mean of 2, baseline 291
  heart rate (HR): 302 beats/minute
Group C, 16.7 μg/kg/hr IV infusion for 4 hours, 30 min, mean of 2, baseline 95
  mean arterial pressure (MAP): 84 mm Hg
Group C, 16.7 μg/kg/hr IV infusion for 4 hours, 30 min, mean of 2, baseline 291
  heart rate (HR): 306 beats/minute
Group C, 16.7 μg/kg/hr IV infusion for 4 hours, 60 min, mean of 2, baseline 95
  mean arterial pressure (MAP): 85 mm Hg
Group C, 16.7 μg/kg/hr IV infusion for 4 hours, 60 min, mean of 2, baseline 291
  heart rate (HR): 300 beats/minute
Group C, 16.7 μg/kg/hr IV infusion for 4 hours, 90 min, mean of 2, baseline 95
  mean arterial pressure (MAP): 83 mm Hg
